The source of these data is patent publication US20250188069A1, “COMPOUNDS AND METHODS FOR DEGRADING CASEIN KINASE 1 ALPHA” (PIN THERAPEUTICS, INC., priority 2022, published 2025).

The subject of one assay is MV-4-11 cells. Put plainly: AML cell viability assay (RealTime-Glo). Format: cell-based. The settings on record: Homo sapiens, MV4-11; IC50 class; MV-4-11 cells, RealTime-Glo after 44 hrs of treatment (TABLE 5); read-out: Cell viability classification.
A further assay deals with CK1α (Homo sapiens, UniProt P48729+Q96SW2). The experiment in a line: CK1α HiBiT assay in CK1a_HiBiT_Jurkat cells. Conditions: DC50 class, 16 hours, Nano-Glo HiBiT Lytic Detection, read-out: CK1α degradation classification. Type of assay: cell-based. The protocol:
CK1a_HiBiT_Jurkat cells were culture in RPMI 1640 medium (Gibco, 11875093) with 10% FBS under standard tissue culture conditions. Briefly, Compounds of the present disclosure was added to 30,000 cells in a white 96-well plate (9-point dose response, top concentration […], half-log serial dilution, final DMSO concentration 0.5%) and incubated for 16 hours. CK1a level was determined in along with the Nano-Glo HiBiT Lytic Detection system [Promega N3050] with final concentration of 1 x. The luminescence was normalized to that of DMSO-treated samples. DC50 values were obtained using three-parameter non-linear regressions using Prism (GraphPad). The compounds are classified based on DC50 values as follows. • A: DC50 is less than or equal to 1×10^−7; • B: DC50 is greater than 1×10^−7 & less than or equal to 1×10^−6; • C: DC50 is greater than 1×10^−6; • NA: not calculated (no activity detected, <25% viability reduction at 1 uM)
For orientation: The HiBiT peptide binds its large partner to form an active luciferase.

Sequence of CK1α (P48729 whole entry): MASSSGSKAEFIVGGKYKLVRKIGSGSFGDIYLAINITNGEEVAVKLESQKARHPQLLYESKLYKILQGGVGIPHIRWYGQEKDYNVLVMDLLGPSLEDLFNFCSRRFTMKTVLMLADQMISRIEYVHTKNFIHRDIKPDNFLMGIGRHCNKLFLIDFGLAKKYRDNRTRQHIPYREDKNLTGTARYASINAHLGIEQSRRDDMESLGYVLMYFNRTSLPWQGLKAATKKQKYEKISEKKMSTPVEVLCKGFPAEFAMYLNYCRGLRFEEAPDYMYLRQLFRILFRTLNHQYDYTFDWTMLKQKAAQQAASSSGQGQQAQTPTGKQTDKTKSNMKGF
Sequence of CK1α (Q96SW2 whole entry): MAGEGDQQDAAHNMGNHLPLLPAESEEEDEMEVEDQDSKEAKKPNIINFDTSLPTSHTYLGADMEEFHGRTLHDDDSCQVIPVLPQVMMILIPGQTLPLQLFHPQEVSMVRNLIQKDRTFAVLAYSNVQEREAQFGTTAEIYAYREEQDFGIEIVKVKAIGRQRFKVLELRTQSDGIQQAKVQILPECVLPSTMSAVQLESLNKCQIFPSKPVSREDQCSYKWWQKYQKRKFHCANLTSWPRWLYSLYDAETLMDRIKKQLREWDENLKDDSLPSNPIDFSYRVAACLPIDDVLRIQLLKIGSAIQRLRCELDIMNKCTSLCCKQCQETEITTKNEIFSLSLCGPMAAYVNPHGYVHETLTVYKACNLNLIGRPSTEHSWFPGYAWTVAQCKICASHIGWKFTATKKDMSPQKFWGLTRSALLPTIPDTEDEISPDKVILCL
Sequence of CK1α (Q16531 whole entry partner): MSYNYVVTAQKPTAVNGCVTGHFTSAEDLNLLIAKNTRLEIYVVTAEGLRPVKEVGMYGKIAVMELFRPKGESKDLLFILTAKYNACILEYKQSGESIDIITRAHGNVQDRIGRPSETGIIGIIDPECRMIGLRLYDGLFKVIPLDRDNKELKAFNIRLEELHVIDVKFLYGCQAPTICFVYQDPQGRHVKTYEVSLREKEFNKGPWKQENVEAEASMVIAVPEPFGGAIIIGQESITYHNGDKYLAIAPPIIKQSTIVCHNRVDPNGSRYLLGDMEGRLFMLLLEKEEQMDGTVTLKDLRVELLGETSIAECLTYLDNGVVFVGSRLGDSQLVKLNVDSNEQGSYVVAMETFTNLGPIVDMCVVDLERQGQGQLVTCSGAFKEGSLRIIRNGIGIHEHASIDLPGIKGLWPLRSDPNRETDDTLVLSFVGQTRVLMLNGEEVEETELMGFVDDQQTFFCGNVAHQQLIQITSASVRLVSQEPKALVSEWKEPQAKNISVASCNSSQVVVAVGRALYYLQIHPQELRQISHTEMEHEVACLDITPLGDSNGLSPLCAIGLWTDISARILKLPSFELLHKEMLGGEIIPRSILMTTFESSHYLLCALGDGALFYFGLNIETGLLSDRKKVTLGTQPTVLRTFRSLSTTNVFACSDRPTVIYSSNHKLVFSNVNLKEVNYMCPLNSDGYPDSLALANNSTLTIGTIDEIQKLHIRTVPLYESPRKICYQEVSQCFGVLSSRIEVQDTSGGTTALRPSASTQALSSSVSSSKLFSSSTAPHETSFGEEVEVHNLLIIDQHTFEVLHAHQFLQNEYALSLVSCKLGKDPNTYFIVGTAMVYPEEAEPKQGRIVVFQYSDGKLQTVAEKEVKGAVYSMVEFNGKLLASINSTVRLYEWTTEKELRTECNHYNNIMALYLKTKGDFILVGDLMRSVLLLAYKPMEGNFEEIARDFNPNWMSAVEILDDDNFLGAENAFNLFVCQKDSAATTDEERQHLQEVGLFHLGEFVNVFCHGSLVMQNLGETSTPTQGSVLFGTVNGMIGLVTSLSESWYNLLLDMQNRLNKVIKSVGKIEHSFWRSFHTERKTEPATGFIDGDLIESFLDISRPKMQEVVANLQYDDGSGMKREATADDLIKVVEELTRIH

On to `O=C1CCC(N2Cc3c(cccc3N(CCC3CC3)[C@H]3CC[C@H](N4CCOCC4)CC3)C2=O)C(=O)N1` (some centres unmarked) [Compound 674, 3-{4-[(2-cyclopropylethyl)[(1r,4r)-4-(morpholin-4-yl)cyclohexyl]amino]-1-oxo-3H-isoindol-2-yl}piperidine-2,6-dione], for which the IC50 in the assay with MV-4-11 cells is below 100 nM. Further, at CK1α, the DC50 was at most 100 nM.

Regarding `O=C1CCC(N2Cc3c(cccc3N(CC3CC(F)(F)C3)[C@H]3CC[C@H](NCCC(F)(F)F)CC3)C2=O)C(=O)N1` (some centres unmarked) [Compound 650, 3-(4-{[(3,3-difluorocyclobutyl)methyl][(1r,4r)-4-[(3,3,3-trifluoropropyl)amino]cyclohexyl]amino}-1-oxo-3H-isoindol-2-yl)piperidine-2,6-dione], the IC50 in the assay on MV-4-11 cells was 100 to 1000 nM. For the same compound, the DC50 on CK1α is at most 100 nM.

In the case of `O=C1CCC(N2Cc3c(cc(F)cc3N(CCC3CC3)[C@H]3CC[C@@H](NCC4(C(F)(F)F)CC4)CC3)C2=O)C(=O)N1` (some centres unmarked) [Compound 658A, 3-{4-[(2-cyclopropylethyl)[(1s,4s)-4-({[1-(trifluoromethyl)cyclopropyl]methyl}amino)cyclohexyl]amino]-6-fluoro-1-oxo-3H-isoindol-2-yl}piperidine-2,6-dione], in the assay on MV-4-11 cells, the IC50 is above 1000 nM. On CK1α, the DC50 fell in the range of 100 to 1000 nM.

Regarding `O=C1CCC(N2Cc3c(cccc3N(CCC3CC3)[C@H]3CC[C@H](NCc4ccccn4)CC3)C2=O)C(=O)N1` (some centres unmarked) [Compound 665, 3-{4-[(2-cyclopropylethyl)[(1r,4r)-4-[(pyridin-2-ylmethyl)amino]cyclohexyl]amino]-1-oxo-3H-isoindol-2-yl}piperidine-2,6-dione; formic acid], the IC50 in the assay with MV-4-11 cells was in the range of 100 to 1000 nM. Moreover, the DC50 on CK1α is at most 100 nM.

In the case of `NC(=O)C12CC(N(CCC3CC3)c3cccc4c3CN(C3CCC(=O)NC3=O)C4=O)(C1)C2` (centres unmarked) [Compound 659, 3-[(2-cyclopropylethyl)[2-(2,6-dioxopiperidin-3-yl)-1-oxo-3H-isoindol-4-yl]amino]bicyclo[1.1.1]pentane-1-carboxamide], the IC50 with MV-4-11 cells lay in the range of 100 to 1000 nM. In addition, at CK1α, the DC50 was at most 100 nM.

For `O=C1CCC(N2Cc3c(cccc3N(CCC3CC3)[C@H]3CC[C@H](N4CCCC4)CC3)C2=O)C(=O)N1` (some centres unmarked) [Compound 669], the IC50 in the assay with MV-4-11 cells was 100 to 1000 nM. The DC50 at CK1α was at most 100 nM.

In the case of `O=C1CCC(N2Cc3c(cccc3N(CCC3CC3)[C@H]3CC[C@H](N4CCC(F)C4)CC3)C2=O)C(=O)N1` (some centres unmarked) [Compound 671, 3-{4-[(2-cyclopropylethyl)[(1r,4r)-4-(3-fluoropyrrolidin-1-yl)cyclohexyl]amino]-1-oxo-3H-isoindol-2-yl}piperidine-2,6-dione], the IC50 in the assay on MV-4-11 cells was in the range of 100 to 1000 nM. Also, on CK1α, the DC50 is at most 100 nM.

For `O=C1CCC(N2Cc3c(cccc3N(CCC3CC3)[C@H]3CC[C@H](NCc4ccc(C(F)(F)F)cn4)CC3)C2=O)C(=O)N1` (some centres unmarked) [Compound 664, 3-{4-[(2-cyclopropylethyl)[(1r,4r)-4-({[5-(trifluoromethyl)pyridin-2-yl]methyl}amino)cyclohexyl]amino]-1-oxo-3H-isoindol-2-yl}piperidine-2,6-dione formic acid], the IC50 in the assay with MV-4-11 cells is 100 to 1000 nM. Besides, the DC50 at CK1α is at most 100 nM.

On to `CC1(C)CC(CN(c2cccc3c2CN(C2CCC(=O)NC2=O)C3=O)[C@H]2CC[C@H](NCC3(C(F)(F)F)CC3)CC2)C1` (some centres unmarked) [Compound 657, 3-(4-{[(3,3-dimethylcyclobutyl)methyl][(1r,4r)-4-({[1-(trifluoromethyl)cyclopropyl]methyl}amino)cyclohexyl]amino}-1-oxo-3H-isoindol-2-yl)piperidine-2,6-dione; bis(trifluoroacetic acid)], for which the IC50 with MV-4-11 cells is above 1000 nM. Also, the DC50 at CK1α lay within 100 to 1000 nM.

With `NCC12CC(N(CCC3CC3)c3cccc4c3CN(C3CCC(=O)NC3=O)C4=O)(C1)C2` (centres unmarked) [Compound 660, 3-(4-{[3-(aminomethyl)bicyclo[1.1.1]pentan-1-yl](2-cyclopropylethyl)amino}-1-oxo-3H-isoindol-2-yl)piperidine-2,6-dione], the IC50 with MV-4-11 cells fell in the range of 100 to 1000 nM. Further, on CK1α, the DC50 is at most 100 nM.
